Measurements published in ChEMBL document CHEMBL1201862, “PubChem BioAssay data set” (2004).
Activity calls are given as the source filed them.

Legend:
[1] = target: Eukaryotic translation initiation factor 4E (Mus musculus, UniProt P63073); assay: eIF4E–eIF4G protein interaction inhibitors, dose response, biochemical, TR-FRET (AID 855); assay type: functional;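 further: potency for disrupting eIF4E binding to eIF4GI seen as loss of FRET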
[2] = THP-1 cell cytotoxicity, dose response, cytotoxicity control for non-replicating M. tuberculosis project (AID 489025); assay type: functional
[3] = Luminescence Cell-Based Dose Retest to Confirm Inhibitors of Cancer Stem Cells. [Related pubchem assays (depositor defined):AID2717, AID2721]; assay type: functional; conditions: Homo sapiens
[4] = HepG2 cell cytotoxicity, dose response, cytotoxicity control for non-replicating M. tuberculosis project (AID 489018); assay type: functional; conditions: Mycobacterium tuberculosis
[5] = Vero E6 cell cytotoxicity, dose response, cytotoxicity control for non-replicating M. tuberculosis project, secondary assay (AID 492998); assay type: functional, VeroE6; conditions: Vero C1008
cells = assay type: functional
[6] = Shn3 3'UTR reporter inhibitors, dose response, cell-based, Clone20 osteoblasts, firefly luciferase, cherry-picked (AID 624132); assay type: functional;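 further: firefly luciferase luminescence from reporter carrying the Shn3 3'UTR in osteoblasts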
[7] = HepG2 cell cytotoxicity, dose response, cytotoxicity control for Shn3 inhibitor project, CellTiter-Glo, cherry-picked (AID 624134); assay type: functional, cell-based
[8] = control 3'UTR Renilla luciferase suppression, dose response, counter-screen for Shn3 inhibitor project, cell-based, Clone20-Shn3RL, cherry-picked (AID 624133); assay type: functional
Tumor necrosis factor = Tumor necrosis factor (Homo sapiens, UniProt P01375); assay: TNFa-triggered NF-kB activation inhibitors, SAR follow-up, cell-based, revised (AID 2337); assay type: functional
Chain of Tumor necrosis factor (P01375 whole entry): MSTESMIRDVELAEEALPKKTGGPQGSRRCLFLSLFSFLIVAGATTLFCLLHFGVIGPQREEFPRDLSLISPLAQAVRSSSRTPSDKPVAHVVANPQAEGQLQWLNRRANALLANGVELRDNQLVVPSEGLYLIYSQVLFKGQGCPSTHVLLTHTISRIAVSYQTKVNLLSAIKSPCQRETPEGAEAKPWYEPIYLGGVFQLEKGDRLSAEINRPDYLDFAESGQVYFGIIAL

HEK293 = assay: cells; conditions: Homo sapiens;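 further: cells exposed to compound for 14 hours overnight before viability readout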
[9] = cytotoxicity in HEK-293T cells, dose response, cytotoxicity control for BCR NF-kB inhibitor project, luminescence, B-cell screen hits (AID 489021); assay type: functional, cell-based;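 further: HEK-293T cells carrying an NF-kB luciferase reporter; cells exposed to compound for about 14 hours before viability readout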
[10] = target: T1, Tyrosine-protein phosphatase non-receptor type 7 (Homo sapiens, UniProt P35236); assay type: functional
T1 sequence (P35236 whole entry): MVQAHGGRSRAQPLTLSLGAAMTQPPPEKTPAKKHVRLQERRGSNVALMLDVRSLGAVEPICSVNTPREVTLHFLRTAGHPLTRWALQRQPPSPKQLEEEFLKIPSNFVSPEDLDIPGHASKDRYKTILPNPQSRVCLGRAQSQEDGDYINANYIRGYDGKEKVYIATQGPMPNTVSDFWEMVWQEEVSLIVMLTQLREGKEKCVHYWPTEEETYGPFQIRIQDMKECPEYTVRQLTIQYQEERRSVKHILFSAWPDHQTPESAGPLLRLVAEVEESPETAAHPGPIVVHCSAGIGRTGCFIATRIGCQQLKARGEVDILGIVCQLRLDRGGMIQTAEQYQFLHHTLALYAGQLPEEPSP

[11] = target: T2, Tyrosine-protein phosphatase non-receptor type 22 (Homo sapiens, UniProt Q9Y2R2); assay type: functional
T2 sequence (Q9Y2R2 whole entry): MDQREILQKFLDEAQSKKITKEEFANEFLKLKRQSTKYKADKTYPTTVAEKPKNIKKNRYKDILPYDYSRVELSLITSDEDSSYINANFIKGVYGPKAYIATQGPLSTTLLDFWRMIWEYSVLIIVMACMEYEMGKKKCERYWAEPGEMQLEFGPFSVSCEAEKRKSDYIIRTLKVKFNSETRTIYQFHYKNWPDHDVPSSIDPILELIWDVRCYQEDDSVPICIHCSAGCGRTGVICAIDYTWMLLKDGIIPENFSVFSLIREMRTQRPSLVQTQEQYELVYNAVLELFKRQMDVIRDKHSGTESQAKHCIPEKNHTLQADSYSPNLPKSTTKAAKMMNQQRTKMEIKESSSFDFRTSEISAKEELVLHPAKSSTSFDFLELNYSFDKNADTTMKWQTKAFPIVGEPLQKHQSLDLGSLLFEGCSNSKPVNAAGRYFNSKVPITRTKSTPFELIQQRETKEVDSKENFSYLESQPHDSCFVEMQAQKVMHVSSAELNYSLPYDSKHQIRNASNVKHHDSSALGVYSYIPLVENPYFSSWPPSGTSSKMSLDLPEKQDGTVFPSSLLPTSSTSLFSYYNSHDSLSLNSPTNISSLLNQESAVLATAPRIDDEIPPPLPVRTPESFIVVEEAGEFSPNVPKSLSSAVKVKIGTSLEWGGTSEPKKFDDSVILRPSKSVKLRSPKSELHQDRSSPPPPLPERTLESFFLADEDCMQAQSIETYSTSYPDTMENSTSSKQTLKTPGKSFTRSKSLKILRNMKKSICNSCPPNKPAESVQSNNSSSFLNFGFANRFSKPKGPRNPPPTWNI

[12] = target: T2, Tyrosine-protein phosphatase non-receptor type 22; assay type: functional; remark: listed apart in the source
[13] = target: T3, Short transient receptor potential channel 4 (Mus musculus, UniProt Q9QUQ5); assay: mouse TRPC4 channel inhibitors, dose response, cell-based, HEK293 TRPC4/mu-opioid, Fluo-4 calcium (AID 434942); assay type: functional;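 further: potency of inhibitors blocking the TRPC4 calcium response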
T3 sequence (Q9QUQ5 whole entry): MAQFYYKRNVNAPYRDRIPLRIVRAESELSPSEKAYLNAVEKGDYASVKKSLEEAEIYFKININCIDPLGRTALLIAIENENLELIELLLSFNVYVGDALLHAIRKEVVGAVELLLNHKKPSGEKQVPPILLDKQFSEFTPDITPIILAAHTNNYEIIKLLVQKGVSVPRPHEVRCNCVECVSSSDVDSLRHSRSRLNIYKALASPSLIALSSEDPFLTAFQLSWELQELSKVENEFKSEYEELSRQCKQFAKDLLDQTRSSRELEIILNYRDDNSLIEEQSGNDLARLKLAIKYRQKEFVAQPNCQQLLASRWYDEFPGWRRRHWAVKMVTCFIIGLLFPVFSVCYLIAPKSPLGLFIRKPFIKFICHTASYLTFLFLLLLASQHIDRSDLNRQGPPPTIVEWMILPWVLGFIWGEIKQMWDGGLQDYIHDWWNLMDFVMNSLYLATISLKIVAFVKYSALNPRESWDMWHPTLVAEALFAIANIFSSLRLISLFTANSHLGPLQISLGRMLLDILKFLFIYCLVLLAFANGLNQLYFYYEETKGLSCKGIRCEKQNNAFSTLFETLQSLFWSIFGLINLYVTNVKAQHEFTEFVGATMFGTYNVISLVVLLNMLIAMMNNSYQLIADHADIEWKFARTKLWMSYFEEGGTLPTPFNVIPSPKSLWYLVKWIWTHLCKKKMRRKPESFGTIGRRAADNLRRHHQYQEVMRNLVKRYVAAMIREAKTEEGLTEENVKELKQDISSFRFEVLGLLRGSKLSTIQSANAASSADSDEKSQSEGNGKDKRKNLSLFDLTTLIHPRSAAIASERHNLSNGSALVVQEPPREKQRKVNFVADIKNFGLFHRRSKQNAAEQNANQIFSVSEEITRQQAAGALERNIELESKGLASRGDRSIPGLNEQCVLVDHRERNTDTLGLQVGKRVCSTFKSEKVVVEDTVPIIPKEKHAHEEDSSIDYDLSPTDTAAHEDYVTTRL

Cytochrome P450 3A4 = Cytochrome P450 3A4 (Homo sapiens, UniProt P08684); conditions: Potency;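 further: confirmatory qHTS run detecting inhibitors and substrates of CYP3A4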
Chain of Cytochrome P450 3A4 (P08684 whole entry): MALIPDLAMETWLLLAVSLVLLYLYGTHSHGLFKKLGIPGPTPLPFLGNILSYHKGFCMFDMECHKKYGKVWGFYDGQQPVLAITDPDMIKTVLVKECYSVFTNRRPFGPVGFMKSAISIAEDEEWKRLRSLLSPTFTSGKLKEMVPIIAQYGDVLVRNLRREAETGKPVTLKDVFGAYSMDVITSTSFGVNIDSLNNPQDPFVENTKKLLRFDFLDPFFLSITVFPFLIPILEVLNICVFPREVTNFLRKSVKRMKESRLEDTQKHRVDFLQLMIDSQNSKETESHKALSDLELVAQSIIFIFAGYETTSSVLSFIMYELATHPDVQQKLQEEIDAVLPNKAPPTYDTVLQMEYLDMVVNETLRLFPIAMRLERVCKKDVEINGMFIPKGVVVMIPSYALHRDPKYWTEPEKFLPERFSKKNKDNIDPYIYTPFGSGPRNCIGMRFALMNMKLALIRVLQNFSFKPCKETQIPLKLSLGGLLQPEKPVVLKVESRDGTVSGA

[14] = inhibitors of intracellular T. cruzi replication, confirmation, NIH3T3 host cells, beta-gal luminescence (AID 2044); assay type: functional, cell-based;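 further: intracellular parasites grown in NIH/3T3 mouse fibroblasts as host cells; luminescent beta-galactosidase reporter signal from transgenic T. cruzi replicating inside host cells; inhibitors lower the luminescence signal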
[15] = cytotoxicity toward NIH3T3 fibroblasts, dose response, counter-screen, cell-based, ATP luminescence, mouse fibroblasts (AID 2010); assay type: functional;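 further: cells exposed to compound for about 90 hours before reading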
[16] = A549 cell cytotoxicity, dose response, cytotoxicity control, plate reader, cherry-pick, antagonist series (AID 743412); assay type: functional, cell-based
[17] = HepG2 cell cytotoxicity, dose response, cytotoxicity control, plate reader, cherry-pick, antagonist series (AID 743416); assay type: functional, cell-based
[18] = LGR2 antagonists, dose response, cell-based, HEK293, CRE-luciferase reporter, cherry pick, set 2 (AID 743343); assay type: functional;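 further: transfected cells were stimulated with diluted bursicon conditioned medium after compound addition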
[19] = MC4R antagonists, dose response, counter-screen for LGR2 antagonist project, cell-based, plate reader, cherry pick (AID 743444); assay type: functional;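 further: transfected HEK 293 cells stimulated with alpha-MSH peptide; potency of inhibitors of the alpha-MSH evoked signal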
[20] = HEK293 cell cytotoxicity, dose response, cytotoxicity control, plate reader, cherry-picked samples (AID 743446); assay type: functional, cell-based

Chain of Eukaryotic translation initiation factor 4E (P63073 whole entry): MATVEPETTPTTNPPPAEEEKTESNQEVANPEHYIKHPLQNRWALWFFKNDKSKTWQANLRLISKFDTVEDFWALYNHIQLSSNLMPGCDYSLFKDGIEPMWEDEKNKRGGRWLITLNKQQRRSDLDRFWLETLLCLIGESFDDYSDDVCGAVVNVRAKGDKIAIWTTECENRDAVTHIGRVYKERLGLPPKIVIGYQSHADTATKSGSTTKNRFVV

Compound: COc1ccc2ccccc2c1C1CC(=O)N2CN(C)CSC2=C1C#N (stereo unspecified)
- IC50 [1]: > 64 µM (inactive)

Compound: CC(NCc1ccc(OCc2ccc(Cl)cc2)cc1)C(O)c1ccccc1 (stereo unspecified)
- CC50 [2]: 9.8 µM (active)
- AC50 [3]: 3.57 µM (active)
- CC50 [4]: 15.5 µM (active)
- CC50 [5]: 14.6 µM (active)
- IC50 (cells): 13.3 µM (active)
- AC50 [6]: 10.9 µM (active)
- AC50 [7]: 14.6 µM (active)
- AC50 [8]: 21.2 µM (active)

Compound: CC(=O)N1c2ccc(S(=O)(=O)N3CCN(c4ccc([N+](=O)[O-])cc4)CC3)cc2CC1C (stereo unspecified)
- IC50 (Tumor necrosis factor): 3.27 µM (active)
- IC50 (HEK293): 14.3 µM (active)

Compound: Cc1ccc(C(=O)CSc2nnc(COc3cccc(C)c3)o2)cc1
- IC50 [9]: > 80 µM (inactive)

Compound: Cc1ccc(NC(=O)COC(=O)c2cc(-c3cccs3)nn2-c2ccccc2)cc1[N+](=O)[O-]
- IC50 [10]: > 79.4 µM (inactive)
- IC50 [11]: > 79.4 µM (inactive)
- IC50 [12]: > 79.4 µM (inactive)

Compound: CC(=O)N1CCN(c2ccccc2NC(=O)c2ccc3ccccc3c2)CC1
- EC50 [13]: 1.5 µM (active)

Compound: COc1ccc(/C=C2\Sc3ccc(C(=O)NCCN4CCCCCC4)cc3N(C)C2=O)cc1
- CC50 [2]: 17.9 µM (active)
- CC50 [4]: 14.3 µM (active)
- CC50 [5]: > 20 µM (active)
- IC50 (cells): 19 µM (active)

Compound: Cn1c(N)c(C(=O)COC(=O)c2cc(-c3ccccc3)nc3ccccc23)c(=O)n(Cc2ccccc2)c1=O
- AC50 (Cytochrome P450 3A4): 12.6 µM (inconclusive)

Compound: Cc1cc([N+](=O)[O-])ccc1NC(=O)Nc1ccc(F)cc1F
- EC50 [14]: 4.36 µM (active)
- EC50 [15]: > 60 µM (not active)
- CC50 [2]: 20.3 µM (active)
- CC50 [4]: > 20 µM (active)
- CC50 [5]: > 20 µM (active)
- IC50 (cells): 46.7 µM (active)
- AC50 [16]: 19.6 µM (active)
- AC50 [17]: 18.8 µM (active)
- AC50 [18]: 30.9 µM (active)
- AC50 [19]: 30.1 µM (active)
- AC50 [20]: 22.8 µM (active)

Compound: Cc1ccc(S(=O)(=O)Nc2c(C)n(C)n(-c3ccccc3)c2=O)cc1C(=O)NCc1ccccn1
- IC50 [1]: > 64 µM (inactive)

Compound: CCOC(=O)C1(CCOc2ccccc2)CCN(Cc2cccn2-c2ncccn2)CC1
- EC50 [13]: 1.88 µM (active)

Compound: c1ccc(-c2nc(NCc3ccco3)c3ccccc3n2)cc1
- EC50 [13]: 3.76 µM (active)

Compound: CCOc1ccc2[nH]c3c(N4CCN(c5ccccn5)CC4)ncnc3c2c1
- EC50 [13]: 1.19 µM (active)
